The results in this text go back to patent publication US20160176867A1, “MODIFIED BET-PROTEIN-INHIBITING DIHYDROQUINOXALINONES AND DIHYDROPYRIDOPYRAZINONES” (BAYER PHARMA AKTIENGESELLSCHAFT, priority 2013, published 2016).

The subject of one assay is B16F10 cells. Put plainly: Cell proliferation assay (alamarBlue), B16F10. The class given is cell-based. The following applies: Mus musculus, B16-F10; B16F10 (melanoma, BRAF wild-type), 96 hours. As for the experimental part:
(§1) In accordance with the invention, the ability of the substances to inhibit cell proliferation was determined. Cell viability was determined by means of the alamarBlue® reagent (Invitrogen) in a Victor X3 Multilabel Reader (Perkin Elmer). The excitation wavelength was 530 nm and the emission wavelength […].
The B16F10 cells (ATCC, CRL-6475) were sown at a concentration of 300-500 cells/well in 100 μl of growth medium (DMEM with phenol red, 10% FCS) on 96-well microtitre plates.
(§2) After overnight incubation at 37° C., the fluorescence values were determined (CI values). Then the plates were treated with various substance dilutions (1E-5 M, 3E-6 M, 1E-6 M, 3E-7 M, 1E-7 M, 3E-8 M, 1E-8 M) and incubated at 37° C. over 96 hours (MOLM-13, B16F10, CHL-1 cells) or 120 hours (MOLP-8 cells). Subsequently, the fluorescence values were determined (CO values). For the data analysis, the CI values were subtracted from the CO values and the results were compared between cells which had been treated with various dilutions of the substance or only with buffer solution. The IC50 values (substance concentration needed for 50% inhibition of cell proliferation) were calculated therefrom.

The target of assay [1] is T1, BRD4 bromo domain 1 [BRD4(1)] (Homo sapiens, UniProt O60885).
T1 construct: N-terminally His6-tagged BRD4(1) (amino acids 67-152); made in house; host or cells: E. coli
Put plainly: BRD4/acetylated peptide H4 binding assay (TR-FRET), BRD4 bromo domain 1. The following applies: inhibition of BRD4(1)/Ac-H4 peptide interaction. An outline of the steps:
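TR-FRET (665/620 nm ratio) measuring displacement of biotinylated tetra-acetylated H4 peptide from His6-BRD4(1) (aa 67-152, E. coli; typically 10 nM) at pH 7.5. Compound (11 concentrations, 0.1 nM–20 μM, duplicates) was preincubated 10 min at 22°C, then 1 h at 22°C and ≥3 h at 4°C; IC50 from 4-parameter fit normalized to DMSO and no-BRD4 controls.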

The subject of another assay is MOLM-13 cells. Briefly: Cell proliferation assay (alamarBlue), MOLM-13. Format: cell-based. The following applies: Homo sapiens; MOLM-13 (acute myeloid leukaemia), 96 hours. As for the experimental part:
as §1
The MOLM-13 cells (DSMZ, ACC 554) were sown at a concentration of 4000 cells/well in 100 μl of growth medium (RPMI1640, 10% FCS) on 96-well microtitre plates.
as §2

In the next assay the test system is CHL-1 cells. Briefly: Cell proliferation assay (alamarBlue), CHL-1. The class given is cell-based. The following applies: Homo sapiens; CHL-1 (melanoma, BRAF wild-type), 96 hours. Here is the method: as §1
The CHL-1 cells (ATCC, CRL-9446) were sown at a concentration of 1000 cells/well in 100 μl of growth medium (DMEM with glutamine, 10% FCS) on 96-well microtitre plates.
as §2

In a further assay the test system is MOLP-8 cells. Put plainly: Cell proliferation assay (alamarBlue), MOLP-8. Format: cell-based. Conditions: Homo sapiens; MOLP-8 (multiple myeloma), 120 hours. Here is the method:
as §1
The MOLP-8 cells (DSMZ, ACC 569) were sown at a concentration of 4000 cells/well in 100 μl of growth medium (RPMI1640, 20% FCS) on 96-well microtitre plates.
as §2

For the compound `COCCN1c2nc(Nc3cccc(S(=O)(=O)N4CCOCC4)c3)ccc2N(C)C(=O)C1C` (racemic) [Example 49, 4-(2-methoxyethyl)-1,3-dimethyl-6-{[3-(morpholin-4-ylsulphonyl)phenyl]amino}-3,4-dihydropyrido[2,3-b]pyrazin-2(1H)-one], the IC50 with B16F10 cells was 399 nM; in assay [1], 112 nM; in the assay on MOLM-13 cells it was 269 nM; with CHL-1 cells it was 153 nM; in the assay on MOLP-8 cells, 163 nM.
Take `COCCN1c2nc(Nc3cccc(S(=O)(=O)N4CCN(C)CC4)c3)ccc2N(C)C(=O)C1C` (racemic) [Example 53, 4-(2-methoxyethyl)-1,3-dimethyl-6-({3-[(4-methylpiperazin-1-yl)sulphonyl]phenyl}-amino)-3,4-dihydropyrido-[2,3-b]pyrazin-2(1H)-one]: the IC50 stood at 1300 nM with B16F10 cells; 151 nM in assay [1]; 565 nM in the assay with MOLM-13 cells; 179 nM in the assay with CHL-1 cells; 365 nM in the assay with MOLP-8 cells.
In the same order, the values of `COCCN1c2nc(Nc3cccc(S(=O)(=O)N4CCOCC4)c3)ccc2N(C)C(=O)[C@H]1C` (stereo in doubt) [Example 111, (3R)-4-(2-methoxyethyl)-1,3-dimethyl-6-{[3-(morpholin-4-ylsulphonyl)phenyl]amino}-3,4-dihydropyrido[2,3-b]pyrazin-2(1H)-one] are 316 nM, 75 nM, 223 nM, 85 nM and 106 nM.
With `COc1ccc(C(=O)NC2CCN(C)CC2)cc1Nc1ccc2c(n1)N(C1CCOCC1)[C@H](C)C(=O)N2C` [Example 16, 3-{[(3R)-1,3-Dimethyl-2-oxo-4-(tetrahydro-2H-pyran-4-yl)-1,2,3,4-tetrahydropyrido[2,3-b]pyrazin-6-yl]amino}-4-methoxy-N-(1-methylpiperidin-4-yl)benzamide], the IC50 in the assay with B16F10 cells was determined as 1140 nM; in assay [1], 234 nM; with MOLM-13 cells, 679 nM; with CHL-1 cells, 346 nM; with MOLP-8 cells, 306 nM.
In the same order, the values of `CCNS(=O)(=O)c1cccc(Nc2ccc3c(n2)N(C2CCOCC2)[C@H](C)C(=O)N3C)c1` [Example 23, 3-{[(3R)-1,3-dimethyl-2-oxo-4-(tetrahydro-2H-pyran-4-yl)-1,2,3,4-tetrahydropyrido[2,3-b]pyrazin-6-yl]amino}-N-ethylbenzenesulphonamide] are 44 nM, 15 nM, 47 nM, 50 nM and 37 nM.
Consider `C[C@@H]1C(=O)N(C)c2ccc(Nc3cccc(S(=O)(=O)N4CCCC4)c3)nc2N1C1CCN(C)CC1` [Example 24, (3R)-1,3-Dimethyl-4-(1-methylpiperidin-4-yl)-6-{[3-(pyrrolidin-1-ylsulphonyl)phenyl]amino}-3,4-dihydropyrido[2,3-b]pyrazin-2(1H)-one], for which the IC50 was found to be 112 nM with B16F10 cells; 16 nM in assay [1]; 20 nM with MOLM-13 cells; 13 nM in the assay with CHL-1 cells; 11 nM with MOLP-8 cells.
In the same order, the values of `COc1ccc(S(=O)(=O)N2CCOCC2)cc1Nc1ccc2c(n1)N(C1CCN(C)CC1)[C@H](C)C(=O)N2C` [Example 25, (3R)-6-{[2-Methoxy-5-(morpholin-4-ylsulphonyl)phenyl]amino}-1,3-dimethyl-4-(1-methylpiperidin-4-yl)-3,4-dihydropyrido[2,3-b]pyrazin-2(1H)-one] are 43 nM, 16 nM, 18 nM, 16 nM and 11 nM.
In the same order, the values of `C[C@@H]1C(=O)N(C)c2ccc(Nc3cccc(S(=O)(=O)NC4CC4)c3)nc2N1C1CCOCC1` [Example 26, N-Cyclopropyl-3-{[(3R)-1,3-dimethyl-2-oxo-4-(tetrahydro-2H-pyran-4-yl)-1,2,3,4-tetrahydropyrido[2,3-b]pyrazin-6-yl]amino}benzenesulphonamide] are 25 nM, 17 nM, 32 nM, 31 nM and 24 nM.
The matching figures for `C[C@@H]1C(=O)N(C)c2ccc(Nc3cccc(S(=O)(=O)N4CCCC4)c3)nc2N1C1CCOCC1` [Example 27, (3R)-1,3-Dimethyl-6-{[3-(pyrrolidin-1-ylsulphonyl)phenyl]amino}-4-(tetrahydro-2H-pyran-4-yl)-3,4-dihydropyrido[2,3-b]pyrazin-2(1H)-one]: 60 nM, 17 nM, 41 nM, 23 nM and 30 nM.
For `COc1ccc(S(=O)(=O)N2CCOCC2)cc1Nc1ccc2c(n1)N(C1CCOCC1)[C@H](C)C(=O)N2C` [Example 28, (3R)-6-{[2-Methoxy-5-(morpholin-4-ylsulphonyl)phenyl]amino}-1,3-dimethyl-4-(tetrahydro-2H-pyran-4-yl)-3,4-dihydropyrido[2,3-b]pyrazin-2(1H)-one], the IC50 was determined as 30 nM in the assay with B16F10 cells; 26 nM in assay [1]; 21 nM in the assay on MOLM-13 cells; 14 nM in the assay on CHL-1 cells; 18 nM in the assay with MOLP-8 cells.
The matching figures for `C[C@@H]1C(=O)N(C)c2ccc(Nc3cccc(S(=O)(=O)N4CC(F)(F)C4)c3)nc2N1C1CCN(C)CC1` [Example 29, (3R)-6-({3-[(3,3-Difluoroazetidin-1-yl)sulphonyl]phenyl}amino)-1,3-dimethyl-4-(1-methylpiperidin-4-yl)-3,4-dihydropyrido[2,3-b]pyrazin-2(1H)-one]: 230 nM, 29 nM, 64 nM, 36 nM and 41 nM.
As for `COc1ccc(S(=O)(=O)N2CC3(COC3)C2)cc1Nc1ccc2c(n1)N(C1CCOCC1)[C@H](C)C(=O)N2C` [Example 30, (3R)-6-{[2-Methoxy-5-(2-oxa-6-azaspiro[3.3]hept-6-ylsulphonyl)phenyl]amino}-1,3-dimethyl-4-(tetrahydro-2H-pyran-4-yl)-3,4-dihydropyrido[2,3-b]pyrazin-2(1H)-one], the IC50 came out at 165 nM in the assay on B16F10 cells; 44 nM in assay [1]; 152 nM in the assay with MOLM-13 cells; 80 nM with CHL-1 cells; 96 nM in the assay with MOLP-8 cells.
In the same order, the values of `C[C@@H]1C(=O)N(C)c2ccc(Nc3cccc(S(=O)(=O)NC4CCN(C)CC4)c3)nc2N1Cc1ccccc1` [Example 33, 3-{[(3R)-4-benzyl-1,3-dimethyl-2-oxo-1,2,3,4-tetrahydropyrido[2,3-b]pyrazin-6-yl]amino}-N-(1-methylpiperidin-4-yl)benzenesulphonamide] are 157 nM, 22 nM, 16 nM, 13 nM and 12 nM.
In the same order, the values of `C[C@@H]1C(=O)N(C)c2ccc(Nc3cccc(S(=O)(=O)N4CCN(CC(F)(F)F)CC4)c3)nc2N1C1CCOCC1` [Example 37, (3R)-1,3-dimethyl-4-(tetrahydro-2H-pyran-4-yl)-6-[(3-{[4-(2,2,2-trifluoroethyl)piperazin-1-yl]sulphonyl}phenyl)-amino]-3,4-dihydropyrido-[2,3-b]pyrazin-2(1H)-one] are 93 nM, 28 nM, 74 nM, 53 nM and 65 nM.
Consider `Cc1nnc(-c2cccc(Nc3ccc4c(n3)N(C3CCOCC3)[C@H](C)C(=O)N4C)c2)o1` [Example 134, (3R)-1,3-Dimethyl-6-{[3-(5-methyl-1,3,4-oxadiazol-2-yl)phenyl]amino}-4-(tetrahydro-2H-pyran-4-yl)-3,4-dihydropyrido[2,3-b]pyrazin-2(1H)-one], for which the IC50 came out at 768 nM in the assay on B16F10 cells, 179 nM in assay [1], 546 nM in the assay with MOLM-13 cells and 453 nM with MOLP-8 cells.
